Source: publication PMC12074795, “Synthesis and biological evaluation of esterified anti-inflammatory drugs with ethylene glycol linkers: cytotoxicity, anti-inflammatory and antioxidant properties” (Royal Society Open Science, 2025)
pEC50: −log10 of the molar value.

Columns and labels:
Type in all cases: biochemical
[1] = Ferric reducing antioxidant power (FRAP) test; conditions: 505 nm
Method: (§1) The in vitro antioxidant ability of the compounds synthesized in this work was evaluated using three different assays, including (i) the ABTS radical cation reduction-decolorization test, which uses the technique of Khan et al. consisting of the reduction of the cation radical by an antioxidant through the discoloration measured by absorption at the wavelength of 734 nm; (ii) interaction with the stable free radical DPPH, based on Bassene’s method, in which the scavenging of DPPH radicals is carried out by a colorimetric method consisting of the reduction of the DPPH radical, determined by its absorption at a wavelength of 517 nm; and (iii) the FRAP test according to the protocol of Path Canada, based on the ability of a substance to reduce Fe^3+ ions to Fe^2+ ions, which, in the presence of 1,10-phenanthroline, form a red-orange complex whose optical density can be measured at 505 nm.
The Fe^3+ reduction test followed Path Canada’s protocol with some modifications, assessing the reduction of Fe^3+ ions to Fe^2+ ions, which form a red-orange complex with 1,10-phenanthroline, measurable at 505 nm. The colour intensity correlates with the amount of Fe^3+ reduced. Four solutions were prepared: 1.2 mg ml^−1 of Fe^3+ solution (1.2 mg FeCl3 in 1 ml distilled H2O), 0.2% ortho-phenanthroline solution (200 mg powder in 100 ml ethanol), 2 mg ml^−1 of gallic acid solution (2 mg gallic acid in 1 ml distilled H2O) as a positive control, stock and dilute solutions of the synthesized compounds (see §3.2.5.1). In a 96-well microplate, 180 µl distilled H2O was added to the first column and 100 µl to others for dilution. Each compound solution (20 µl at 10 mg ml^−1) was mixed with 25 µl Fe^3+ solution and incubated for 15 min in the dark at room temperature. Afterwards, 50 µl ortho-phenanthroline solution was added, followed by another 15 min incubation. Optical density was measured at 505 nm using a TECAN M200 plate reader. The positive control was treated similarly to the DPPH and ABTS assays.
(§2) The percentages of scavenging or 50% reduction were calculated using gallic acid as a standard for 100% reduction. The concentration of radical scavengers needed to neutralize 50% of free radicals, referred to as SC50, was determined using GraphPad Prism 8.0.1 software (244).

[2] = DPPH radical scavenging test; conditions: 517 nm, 30 min
Method: as §1
The DPPH radical trapping protocol is based on Bassene’s method, modified for colorimetric analysis. DPPH is a stable purple organic nitrogen radical that absorbs light at 517 nm. When an anti-free radical agent is present, DPPH is reduced to a stable yellow compound, indicated by a loss of colour between 470 and 517 nm. A 0.02% DPPH solution was made with ethanol and stored in a sealed jar in the dark. Stock solutions of the synthesized compounds were prepared by dissolving 100 mg of each in 1 ml of DMSO, and the final concentration of DMSO concentration in the first well was 0.5%. These stocks were then diluted to achieve concentrations (500, 250, 125, 62.5, 31.25, 15.625 and 7.8125)/Mi in mM (Mi: molecular weight of each synthetic compound). Each dilution (25 µl) was put to the wells and 75 µl of the DPPH solution (0.02%) were added. Optical densities were measured at 517 nm after 30 min of incubation in the dark. The negative control used DPPH alone, while the positive control used gallic acid treated with solutions of the synthesized compounds at final concentrations (50, 25, 12.5, 6.25, 3.125, 1.5625 and 0.78125)/Mi in mM. Synthesized compounds were also tested alone to assess fluorescence.
Assays were performed in duplicate, and results were averaged. Percentage inhibition (PI), reflecting the antioxidant activity related to the DPPH˙ radical scavenging effect, was calculated using the following formula:
(PI)=Acontrol−Atest/Acontrol×100,
where Acontrol = absorbance of the control sample and Atest = absorbance of the tested sample.
as §2

[3] = ABTS radical cation scavenging (decolorization) test; conditions: 734 nm, 30 min
Method: as §1
The modified technique by Khan et al. was used to scavenge ABTS^+• cation radicals through a discoloration test. In this test, potassium permanganate (KMnO4) or potassium persulphate (K2S2O8) reacts with ABTS to generate a blue-green ABTS^+• radical. Antioxidants reduce this radical, leading to a measurable colour change at 734 nm, proportional to the antioxidant concentration. The antioxidant capacity is assessed by comparing the intensity reduction of ABTS colour with that of a reference antioxidant, gallic acid. Stock and dilute solutions of synthetic compounds were prepared as detailed in §3.2.5.1. Diluted concentrations were (50, 25, 12.5, 6.25, 3.125, 1.5625 and 0.78125)/Mi in mM. The ABTS solution was obtained by mixing ABTS with K2S2O8, producing an intense blue colour. The ABTS^+• radical was generated by combining equal volumes of a 4.9 mM K2S2O8 solution and a 7 mM ABTS stock solution, stored in the dark at room temperature for 15 h before use. The 7 mM ABTS stock was then diluted 20 times with distilled water. A total of 25 µl of each dilution was added to wells along with 75 µl of 0.175 mM ABTS+ solution. After 30 min of incubation in the dark at room temperature, optical densities were measured at 734 nm. Negative controls contained the ABTS reagent without synthesized compounds, while positive controls used gallic acid at the same final concentrations as the compounds. Compounds were also tested alone to assess fluorescence. The reduction of ABTS results in a blue discoloration, with lower absorbance indicating higher antioxidant activity.
as §2

[4] = first replicate, read-out: FRAP SC50(1)
[5] = mean of duplicate, read-out: FRAP mean SC50
[6] = second replicate, read-out: FRAP SC50(2)
[7] = first replicate, read-out: DPPH SC50(1)
[8] = mean of duplicate, read-out: DPPH mean SC50
[9] = second replicate, read-out: DPPH SC50(2)
[10] = first replicate, read-out: ABTS SC50(1)
[11] = second replicate, read-out: ABTS SC50(2)

pEC50 [1, 4] | pEC50 [1, 5] | pEC50 [1, 6] | pEC50 [2, 7] | pEC50 [2, 8] | pEC50 [2, 9] | pEC50 [3, 10] | pEC50 [3, 11] | pEC50 ([3]; mean of duplicate, read-out: ABTS mean SC50) | SMILES
4.23 | 4.21 | 4.21 | 4.82 | 4.82 | 4.82 | 4.42 | 4.42 | – | O=C(O)c1cc(O)c(O)c(O)c1 [gallic acid, reference compound]
2.21 | 2.21 | 2.21 | 2.19 | 2.19 | 2.19 | 2.67 | 2.68 | 2.67 | CCCCCCCC/C=C\CCCCCCCC(=O)OCCOC(=O)C(C)c1ccc(CC(C)C)cc1 (centres unmarked) [Compound 5b, 2-((2-(4-isobutylphenyl)propanoyl)oxy)ethyl oleate]
